{"source": "patent US9944647B2", "about": "(Incyte Corporation, priority 2015, dated 2018)", "target": "LSD-1 enzyme (Homo sapiens (Human), UniProt O60341)", "assay": "LANCE LSD1/KDM1A demethylase assay (LSD1 histone demethylase biochemical assay)", "conditions": "1 nM LSD-1 enzyme, 1 hour preincubation at 25° C., Biotin-labeled Histone H3 peptide substrate", "description": "Example A: LSD1 Histone Demethylase Biochemical Assay\nLANCE LSD1/KDM1A demethylase assay—10 μL of 1 nM LSD-1 enzyme (ENZO BML-SE544-0050) in the assay buffer (50 mM Tris, pH 7.5, 0.01% Tween-20, 25 mM NaCl, 5 mM DTT) were preincubated for 1 hour at 25° C. with 0.8 μL compound/DMSO dotted in black 384 well polystyrene plates. […] Reactions were stopped by addition of 10 μL 1×LANCE Detection Buffer (PerkinElmer CR97-100) supplemented with 1.5 nM Eu-anti-unmodified H3K4 Antibody (PerkinElmer TRF0404), and 225 nM LANCE Ultra Streptavidin (PerkinElmer TRF102) along with 0.9 mM Tranylcypromine-HCl (Millipore 616431). After stopping the reactions plates were incubated for 30 minutes and read on a PHERAstar FS plate reader (BMG Labtech).", "data": [{"smiles": "CCN1CCC[C@@H](COc2nc(-c3ccc(C#N)cc3)c(-c3cnc4c(cnn4C)c3)c3nccn23)C1", "note": "[Example 29, 4-[5-{[(3R)-1-ethylpiperidin-3-yl]methoxy}-8-(1-methyl-1H-pyrazolo[3,4-b]pyridin-5-yl)imidazo[1,2-c]pyrimidin-7-yl]benzonitrile]", "values": [{"measurement": "IC50", "result": "≤ 0.05", "unit": "µM"}]}, {"smiles": "Cc1cc(-c2c(-c3ccc(C#N)cc3)nc(OC[C@@H]3CCCN(C)C3)n3ccnc23)cc(F)c1CO", "note": "[Example 30, 4-(8-[3-fluoro-4-(hydroxymethyl)-5-methylphenyl]-5-{[(3R)-1-methylpiperidin-3-yl]methoxy}imidazo[1,2-c]pyrimidin-7-yl)benzonitrile]", "values": [{"measurement": "IC50", "result": "≤ 0.05", "unit": "µM"}]}, {"smiles": "CN1CCC[C@@H](COc2nc(-c3ccc(C#N)cc3)c(-c3ccc(CO)c(F)c3)c3nccn23)C1", "note": "[Example 31, 4-(8-[3-fluoro-4-(hydroxymethyl)phenyl]-5-{[(3R)-1-methylpiperidin-3-yl]methoxy}imidazo[1,2-c]pyrimidin-7-yl)benzonitrile]", "values": [{"measurement": "IC50", "result": "≤ 0.05", "unit": "µM"}]}, {"smiles": "CN1CCC[C@@H](COc2nc(-c3ccc(C#N)cc3)c(-c3cc(F)c(CO)c(F)c3)c3nccn23)C1", "note": "[Example 32, 4-(8-[3,5-difluoro-4-(hydroxymethyl)phenyl]-5-{[(3R)-1-methylpiperidin-3-yl]methoxy}imidazo[1,2-c]pyrimidin-7-yl)benzonitrile]", "values": [{"measurement": "IC50", "result": "≤ 0.05", "unit": "µM"}]}, {"smiles": "Cn1ncc2cc(-c3c(-c4ccc(C#N)cc4)nc(OC[C@@H]4CCCN(CCC#N)C4)n4ccnc34)cnc21", "note": "[Example 33, 4-[5-{[(3R)-1-(2-cyanoethyl)piperidin-3-yl]methoxy}-8-(1-methyl-1H-pyrazolo[3,4-b]pyridin-5-yl)imidazo[1,2-c]pyrimidin-7-yl]benzonitrile]", "values": [{"measurement": "IC50", "result": "≤ 0.05", "unit": "µM"}]}, {"smiles": "Cn1ncc2cc(-c3c(-c4ccc(C#N)cc4)nc(OC[C@@H]4CCCN(CCO)C4)n4ccnc34)cnc21", "note": "[Example 34, 4-[5-{[(3R)-1-(2-hydroxyethyl)piperidin-3-yl]methoxy}-8-(1-methyl-1H-pyrazolo[3,4-b]pyridin-5-yl)imidazo[1,2-c]pyrimidin-7-yl]benzonitrile]", "values": [{"measurement": "IC50", "result": "≤ 0.05", "unit": "µM"}]}, {"smiles": "Cc1cc(-c2c(-c3ccc(C#N)cc3)nc(OC[C@@H]3CCCN(C)C3)n3ccnc23)ccc1CO", "note": "[Example 35, 4-(8-[4-(hydroxymethyl)-3-methylphenyl]-5-{[(3R)-1-methylpiperidin-3-yl]methoxy}imidazo[1,2-c]pyrimidin-7-yl)benzonitrile]", "values": [{"measurement": "IC50", "result": "≤ 0.05", "unit": "µM"}]}, {"smiles": "CN1CCC[C@@H](COc2nc(-c3ccc(C#N)cc3)c(-c3ccc(CO)cc3)c3nccn23)C1", "note": "[Example 36, 4-(8-[4-(hydroxymethyl)phenyl]-5-{[(3R)-1-methylpiperidin-3-yl]methoxy}imidazo[1,2-c]pyrimidin-7-yl)benzonitrile]", "values": [{"measurement": "IC50", "result": "≤ 0.05", "unit": "µM"}]}, {"smiles": "CN(C)C1CCN(c2nc(-c3ccc(C#N)cc3)c(-c3cnc4c(cnn4C)c3)c3nccn23)CC1", "note": "[Example 37, 4-[5-[4-(dimethylamino)piperidin-1-yl]-8-(1-methyl-1H-pyrazolo[3,4-b]pyridin-5-yl)imidazo[1,2-c]pyrimidin-7-yl]benzonitrile]", "values": [{"measurement": "IC50", "result": "≤ 0.05", "unit": "µM"}]}, {"smiles": "CN(C)[C@@H]1CCN(c2nc(-c3ccc(C#N)cc3)c(-c3cnc4c(cnn4C)c3)c3nccn23)C1", "note": "[Example 38, 4-[5-[(3R)-3-(dimethylamino)pyrrolidin-1-yl]-8-(1-methyl-1H-pyrazolo[3,4-b]pyridin-5-yl)imidazo[1,2-c]pyrimidin-7-yl]benzonitrile]", "values": [{"measurement": "IC50", "result": "≤ 0.05", "unit": "µM"}]}, {"smiles": "CN1CCC2(CCN(c3nc(-c4ccc(C#N)cc4)c(-c4cnc5c(cnn5C)c4)c4nccn34)C2)C1", "note": "(stereo not shown) [Example 39, 4-[5-(7-methyl-2,7-diazaspiro[4.4]non-2-yl)-8-(1-methyl-1H-pyrazolo[3,4-b]pyridin-5-yl)imidazo[1,2-c]pyrimidin-7-yl]benzonitrile]", "values": [{"measurement": "IC50", "result": "≤ 0.05", "unit": "µM"}]}, {"smiles": "COC(=O)N(C)Cc1ccc(-c2c(-c3ccc(C#N)cc3)nc(OC[C@@H]3CCCN(C)C3)n3ccnc23)cc1F", "note": "[Example 40, methyl[4-(7-(4-cyanophenyl)-5-{[(3R)-1-methylpiperidin-3-yl]methoxy}imidazo[1,2-c]pyrimidin-8-yl)-2-fluorobenzyl]methylcarbamate]", "values": [{"measurement": "IC50", "result": "≤ 0.05", "unit": "µM"}]}, {"smiles": "COCCN1CCC[C@@H](COc2nc(-c3ccc(C#N)cc3)c(-c3cnc4c(cnn4C)c3)c3nccn23)C1", "note": "[Example 41, 4-[5-{[(3R)-1-(2-methoxyethyl)piperidin-3-yl]methoxy}-8-(1-methyl-1H-pyrazolo[3,4-b]pyridin-5-yl)imidazo[1,2-c]pyrimidin-7-yl]benzonitrile]", "values": [{"measurement": "IC50", "result": "≤ 0.05", "unit": "µM"}]}, {"smiles": "CN1CCC[C@@H](COc2nc(-c3ccc(C#N)cc3)c(-c3ccc4c(c3)c(N)nn4C)c3nccn23)C1", "note": "[Example 42, 4-(8-(3-amino-1-methyl-1H-indazol-5-yl)-5-{[(3R)-1-methylpiperidin-3-yl]methoxy}imidazo[1,2-c]pyrimidin-7-yl)benzonitrile]", "values": [{"measurement": "IC50", "result": "≤ 0.05", "unit": "µM"}]}, {"smiles": "CN1CCC[C@@H](COc2nc(-c3ccc(C#N)cc3)c(-c3ccc4c(c3)OC(=O)N(C)C4)c3nccn23)C1", "note": "[Example 43, 4-(8-(3-methyl-2-oxo-3,4-dihydro-2H-1,3-benzoxazin-7-yl)-5-{[(3R)-1-methylpiperidin-3-yl]methoxy}imidazo[1,2-c]pyrimidin-7-yl)benzonitrile]", "values": [{"measurement": "IC50", "result": "≤ 0.05", "unit": "µM"}]}, {"smiles": "CN1CCC[C@@H](COc2nc(-c3ccc(C#N)cc3)c(-c3ccc4c(c3)n(C)c(=O)n4C)c3nccn23)C1", "note": "[Example 44, 4-(8-(1,3-dimethyl-2-oxo-2,3-dihydro-1H-benzimidazol-5-yl)-5-{[(3R)-1-methylpiperidin-3-yl]methoxy}imidazo[1,2-c]pyrimidin-7-yl)benzonitrile]", "values": [{"measurement": "IC50", "result": "0.05 to 0.5", "unit": "µM"}]}, {"smiles": "CN1CCC[C@@H](COc2nc(-c3ccc(C#N)cc3)c(-c3cc4oc(=O)n(C)c4cc3F)c3nccn23)C1", "note": "[Example 45, 4-(8-(5-fluoro-3-methyl-2-oxo-2,3-dihydro-1,3-benzoxazol-6-yl)-5-{[(3R)-1-methylpiperidin-3-yl]methoxy}imidazo[1,2-c]pyrimidin-7-yl)benzonitrile]", "values": [{"measurement": "IC50", "result": "≤ 0.05", "unit": "µM"}]}, {"smiles": "CN(C)C1CCN(c2nc(-c3ccc(C#N)cc3)c(-c3ccc4c(cnn4C)c3)c3nccn23)CC1", "note": "[Example 46, 4-[5-[4-(dimethylamino)piperidin-1-yl]-8-(1-methyl-1H-indazol-5-yl)imidazo[1,2-c]pyrimidin-7-yl]benzonitrile]", "values": [{"measurement": "IC50", "result": "≤ 0.05", "unit": "µM"}]}, {"smiles": "CN(C)C1CCN(c2nc(-c3ccc(C#N)cc3)c(-c3ccc4c(c3)oc(=O)n4C)c3nccn23)CC1", "note": "[Example 47, 4-[5-[4-(dimethylamino)piperidin-1-yl]-8-(3-methyl-2-oxo-2,3-dihydro-1,3-benzoxazol-6-yl)imidazo[1,2-c]pyrimidin-7-yl]benzonitrile]", "values": [{"measurement": "IC50", "result": "≤ 0.05", "unit": "µM"}]}, {"smiles": "COc1ccc(-c2c(-c3ccc(C#N)cc3)nc(N3CCC(N(C)C)CC3)n3ccnc23)cn1", "note": "[Example 48, 4-[5-[4-(dimethylamino)piperidin-1-yl]-8-(6-methoxypyridin-3-yl)imidazo[1,2-c]pyrimidin-7-yl]benzonitrile]", "values": [{"measurement": "IC50", "result": "0.05 to 0.5", "unit": "µM"}]}, {"smiles": "COc1ncc(-c2c(-c3ccc(C#N)cc3)nc(N3CCC(N(C)C)CC3)n3ccnc23)cc1F", "note": "[Example 49, 4-[5-[4-(dimethylamino)piperidin-1-yl]-8-(5-fluoro-6-methoxypyridin-3-yl)imidazo[1,2-c]pyrimidin-7-yl]benzonitrile]", "values": [{"measurement": "IC50", "result": "≤ 0.05", "unit": "µM"}]}, {"smiles": "CN(C)C1CCN(c2nc(-c3ccc(C#N)cc3)c(-c3ccc(N4CCCC4=O)nc3)c3nccn23)CC1", "note": "[Example 50, 4-{5-[4-(dimethylamino)piperidin-1-yl]-8-[6-(2-oxopyrrolidin-1-yl)pyridin-3-yl]imidazo[1,2-c]pyrimidin-7-yl}benzonitrile]", "values": [{"measurement": "IC50", "result": "0.05 to 0.5", "unit": "µM"}]}, {"smiles": "CN1C(=O)COc2cc(-c3c(-c4ccc(C#N)cc4)nc(N4CCC(N(C)C)CC4)n4ccnc34)ccc21", "note": "[Example 51, 4-[5-[4-(dimethylamino)piperidin-1-yl]-8-(4-methyl-3-oxo-3,4-dihydro-2H-1,4-benzoxazin-7-yl)imidazo[1,2-c]pyrimidin-7-yl]benzonitrile]", "values": [{"measurement": "IC50", "result": "≤ 0.05", "unit": "µM"}]}, {"smiles": "CN(C)C1CCN(c2nc(-c3ccc(C#N)cc3)c(-c3ccc4c(c3)nc(C(F)F)n4C)c3nccn23)CC1", "note": "[Example 52, 4-{8-[2-(difluoromethyl)-1-methyl-1H-benzimidazol-5-yl]-5-[4-(dimethylamino)piperidin-1-yl]imidazo[1,2-c]pyrimidin-7-yl}benzonitrile]", "values": [{"measurement": "IC50", "result": "≤ 0.05", "unit": "µM"}]}, {"smiles": "COc1ncc(-c2c(-c3ccc(C#N)cc3)nc(N3CCC(N(C)C)CC3)n3ccnc23)cc1C", "note": "[Example 53, 4-[5-[4-(dimethylamino)piperidin-1-yl]-8-(6-methoxy-5-methylpyridin-3-yl)imidazo[1,2-c]pyrimidin-7-yl]benzonitrile]", "values": [{"measurement": "IC50", "result": "≤ 0.05", "unit": "µM"}]}, {"smiles": "CN(C)C1CCN(c2nc(-c3ccc(C#N)cc3)c(-c3cc4oc(=O)n(C)c4cc3F)c3nccn23)CC1", "note": "[Example 54, 4-[5-[4-(dimethylamino)piperidin-1-yl]-8-(5-fluoro-3-methyl-2-oxo-2,3-dihydro-1,3-benzoxazol-6-yl)imidazo[1,2-c]pyrimidin-7-yl]benzonitrile]", "values": [{"measurement": "IC50", "result": "≤ 0.05", "unit": "µM"}]}, {"smiles": "CCN1CCC[C@@H](COc2nc(-c3ccc(C#N)cc3)c(-c3ccc4c(c3)oc(=O)n4C)c3nccn23)C1", "note": "[Example 55, 4-[5-{1[(3R)-1-ethylpiperidin-3-yl]methoxy}-8-(3-methyl-2-oxo-2,3-dihydro-1,3-benzoxazol-6-yl)imidazo[1,2-c]pyrimidin-7-yl]benzonitrile]", "values": [{"measurement": "IC50", "result": "≤ 0.05", "unit": "µM"}]}, {"smiles": "COc1ccc(-c2c(-c3ccc(C#N)cc3)nc(OC[C@@H]3CCCN(CCO)C3)n3ccnc23)cn1", "note": "[Example 56, 4-[5-{[(3R)-1-(2-hydroxyethyl)piperidin-3-yl]methoxy}-8-(6-methoxypyridin-3-yl)imidazo[1,2-c]pyrimidin-7-yl]benzonitrile]", "values": [{"measurement": "IC50", "result": "≤ 0.05", "unit": "µM"}]}]}
